Reference: patent publication US7301033B2, “PPAR-activating compound” (Kowa Co., Ltd., priority 2005, dated 2007)

How the values were obtained:
Type in all cases: cell-based
[1] = molecular target: T1, human PPARδ (Homo sapiens, UniProt Q03181); assay: Gal4-human PPARδ chimera luciferase transfection assay in COS cells; settings: compound added at 1 μM, luciferase activity with GW501516 1 μM given as 10.0, 16 hours
T1 construct: with 137th to 441st amino acids of human PPARδ; expressed in transfected cells; host or cells: COS cells (African green monkey kidney)
T1 sequence (Q03181 137-441): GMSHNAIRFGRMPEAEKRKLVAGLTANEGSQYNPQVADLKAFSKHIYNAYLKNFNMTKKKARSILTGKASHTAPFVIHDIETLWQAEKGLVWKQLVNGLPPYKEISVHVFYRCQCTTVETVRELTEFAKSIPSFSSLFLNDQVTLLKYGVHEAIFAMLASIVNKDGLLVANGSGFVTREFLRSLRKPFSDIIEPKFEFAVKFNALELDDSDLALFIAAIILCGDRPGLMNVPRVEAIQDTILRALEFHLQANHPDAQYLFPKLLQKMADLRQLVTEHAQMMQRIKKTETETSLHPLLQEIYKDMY
Description: (§1) The PPAR receptor-activating effect of the compound of the present invention represented by the formula (1) was measured by a method described below (Proc. Natl. Acad. Sci., 92, pp 7297-7301, 1995; Journal of Lipid Research, 40, pp 2099-2110, 1999; and Proc. Natl. Acad. Sci, 98, pp 5306-5311, 2001).
(§2) All the transfection assays were conducted using African green monkey kidney-derived cell line COS cells. The COS cells were cultured at 5% CO2 concentration using a DMEM medium containing 10% fetal bovine serum, glutamic acid, and an antibiotic as a culture solution.
(§3) Gal4-human PPARs chimeric constructs which were fused the DNA-binding region of yeast transcription factor Gal4 with the ligand-binding region of human PPARs were used as an expression vector. A chimera where 1st to 147th amino acids of the Gal4 transcription factor were fused with 166th to 467th amino acids of human PPARα, with 182nd to 505th amino acids of human PPARγ2, or with 137th to 441st amino acids of human PPARδ was used as the chimera for each isoform. A reporter vector used was firefly luciferase whose promoter region contains five Gal4 recognition sequences. The plasmids were transfected into the cells by a method using Lipofectamine. In addition, a β-galactosidase expression vector was used as an internal standard.
(§4) After the transfection into the cells, the medium was substituted with a DMEM medium (containing 0.2% serum) supplemented with the compound, in which the cells were then cultured for additional 16 hours. Thereafter, luciferase activity and β-galactosidase activity in the cell lysate were measured.
(§5) In the present experiment, dimethyl sulfoxide (DMSO) was used in the dissolution and dilution of the compound. When the cells were treated, the DMSO concentration in the DMEM medium (containing 0.2% serum) was adjusted to 0.1%.

[2] = molecular target: T2, human PPARα (Homo sapiens, UniProt Q07869); assay: Gal4-human PPARα chimera luciferase transfection assay in COS cells
T2 construct: 166th to 467th amino acids of human PPARα; expressed in transfected cells; host or cells: COS cells (African green monkey kidney)
T2 sequence (Q07869 166-467): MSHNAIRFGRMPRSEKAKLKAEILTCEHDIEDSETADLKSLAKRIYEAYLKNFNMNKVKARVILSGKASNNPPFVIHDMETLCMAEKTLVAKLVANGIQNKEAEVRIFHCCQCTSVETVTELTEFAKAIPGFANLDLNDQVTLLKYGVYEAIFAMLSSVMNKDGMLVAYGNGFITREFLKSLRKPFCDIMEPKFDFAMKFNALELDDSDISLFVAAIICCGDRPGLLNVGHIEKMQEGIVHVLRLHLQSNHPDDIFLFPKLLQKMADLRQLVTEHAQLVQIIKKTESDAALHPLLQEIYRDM
Description: as §1, §2, §3, §4, §5

[3] = molecular target: T3, human PPARγ2 (Homo sapiens, UniProt P37231); assay: Gal4-human PPARγ2 chimera luciferase transfection assay in COS cells; settings: compound added at 1 μM, luciferase activity with rosiglitazone 1 μM given as 10.0, 16 hours
T3 construct: with 182nd to 505th amino acids of human PPARγ2; expressed in transfected cells; host or cells: COS cells (African green monkey kidney)
T3 sequence (P37231 182-505): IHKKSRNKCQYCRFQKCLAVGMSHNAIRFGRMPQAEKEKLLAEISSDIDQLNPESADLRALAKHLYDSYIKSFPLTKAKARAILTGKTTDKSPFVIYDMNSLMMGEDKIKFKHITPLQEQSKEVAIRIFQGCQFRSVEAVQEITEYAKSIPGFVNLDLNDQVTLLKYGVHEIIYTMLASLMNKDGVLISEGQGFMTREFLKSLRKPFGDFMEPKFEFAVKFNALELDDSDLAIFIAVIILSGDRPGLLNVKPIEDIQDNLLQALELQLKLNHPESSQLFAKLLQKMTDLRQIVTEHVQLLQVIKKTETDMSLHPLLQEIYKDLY
Description: as §1, §2, §3, §4, §5

[4] = compound added at 1 μM, luciferase activity with WY14643 10 μM given as 10.0, 16 hours

Row | SMILES | hPPAR; Relative activity δ [1] | hPPAR; Relative activity α [2, 4] | hPPAR; Relative activity γ [3] | hPPAR; Relative activity α ([2]; positive compound at 10 μM, its luciferase activity given as 10.0, 16 hours)
1 | O=C(O)c1cccc(OCCCN(CCOc2ccc(Cl)cc2)c2nc3ccccc3o2)c1 [Example 6, 3-[3-[N-(Benzoxazol-2-yl)-N-2-(4-chlorophenoxy)ethyl]aminopropoxy]benzoic acid] | 0.3 | 17.3 | 1.2 | 
2 | CCCCCCCCN(CCOc1ccccc1C(=O)O)c1nc2ccccc2o1 [Example 13, 2-[2-[N-(Benzoxazol-2-yl)-N-n-octyl]aminoethoxy]benzoic acid] | 0.1 | 15.2 | 6.2 | 
3 | CCCCCCCN(CCCOc1cccc(C(=O)O)c1)c1nc2ccccc2o1 [Example 19, 3-[3-[N-(Benzoxazol-2-yl)-N-n-heptyl]aminopropoxy]benzoic acid] | 0.5 | 15.1 | 1.7 | 
4 | CCCCCCCCN(CCCOc1cccc(C(=O)O)c1)c1nc2ccccc2o1 [Example 20, 3-[3-[N-(Benzoxazol-2-yl)-N-n-octyl]aminopropoxy]benzoic acid] | 0.2 | 21.7 | 1.5 | 
5 | CCCCCCCCN(CCCOc1ccccc1C(=O)O)c1nc2ccccc2o1 [Example 27, 2-[3-[N-(Benzoxazol-2-yl)-N-n-octyl]aminopropoxy]benzoic acid] | 0.1 | 13.7 | 1.9 | 
6 | O=C(O)c1cccc(OCCCCN(CCOc2ccc(Cl)cc2)c2nc3ccccc3o2)c1 [Example 45, 3-[4-[N-(Benzoxazol-2-yl)-N-2-(4-chloropheoxyl)ethyl]aminobutoxy]benzoic acid] | 0.6 | 12.3 | 3.5 | 
7 | CCCCCCCN(CCCCOc1cccc(C(=O)O)c1)c1nc2ccccc2o1 [Example 46, 3-[4-[N-(Benzoxazol-2-yl)-N-n-heptyl]aminobutoxy]benzoic acid] | 0.3 | 16.5 | 1.9 | 
8 | CCCCCN(CCCCOc1cccc(C(=O)O)c1)c1nc2ccccc2o1 [Example 47, 3-[4-[N-(Benzoxazol-2-yl)-N-n-pentyl]aminobutoxy]benzoic acid] | 0.3 | 10.4 | 1.2 | 
9 | O=C(O)c1cccc(OCCCCN(CCCOc2ccccc2)c2nc3ccccc3o2)c1 [Example 48, 3-[4-[N-(Benzoxazol-2-yl)-N-3-phenoxypropyl]aminobutoxy]benzoic acid] | 0.2 | 16.0 | 2.1 | 
10 | CCCCCCCCN(CCCCOc1ccccc1C(=O)O)c1nc2ccccc2o1 [Example 50, 2-[4-[N-(Benzoxazol-2-yl)-N-n-octyl]aminobutoxy]benzoic acid] | 0.1 | 13.3 | 2.9 | 
11 | O=C(O)c1ccccc1OCCCCN(CCOc1ccccc1)c1nc2ccccc2o1 [Example 52, 2-[4-[N-(Benzoxazol-2-yl)-N-2-phenoxyethyl]aminobutoxy]benzoic acid] | 0.1 | 13.8 | 2.1 | 
12 | O=C(O)c1ccccc1OCCCCN(CCCOc1ccccc1)c1nc2ccccc2o1 [Example 53, 2-[4-[N-(Benzoxazol-2-yl)-N-3-phenoxypropyl]aminobutoxy]benzoic acid] | 0.1 | 16.0 | 3.5 | 
13 | CCCCCCN(CCCCOc1ccc(C(=O)O)cc1)c1nc2ccccc2o1 [Example 60, 4-[4-[N-(Benzoxazol-2-yl)-N-n-hexyl]aminobutoxy]benzoic acid] | 0.1 | 11.9 | 1.8 | 
14 | CC(C)N(CCCCCSc1ccccc1C(=O)O)c1nc2ccccc2o1 [Example 70, 2-[5-[N-(Benzoxazol-2-yl)-N-isopropyl]aminopentylthio]benzoic acid] | 0.2 | 12.4 | 1.4 | 
15 | CCCCN(CCCCCSc1ccccc1C(=O)O)c1nc2ccccc2o1 [Example 71, 2-[5-[N-(Benzoxazol-2-yl)-N-n-butyl]aminopentylthio]benzoic acid] | 0.5 | 11.0 | 2.0 | 
16 | CCCCCN(CCCCCSc1ccccc1C(=O)O)c1nc2ccccc2o1 [Example 72, 2-[5-[N-(Benzoxazol-2-yl)-N-n-pentyl]aminopentylthio]benzoic acid] | 0.6 | 13.5 | 1.7 | 
17 | Cc1c(CN(CCSc2ccccc2C(=O)O)c2nc3ccccc3o2)cccc1[N+](=O)[O-] [Example 73, 2-[2-[N-(Benzoxazol-2-yl)-N-(2-methyl-3-nitrobenzyl) ]aminoethylthio]benzoic acid] | 0.2 | 11.2 | 1.1 | 
18 | O=C(O)c1ccccc1SCCN(Cc1ccccc1[N+](=O)[O-])c1nc2ccccc2o1 [Example 74, 2-[2-[N-(Benzoxazol-2-yl)-N-2-nitrobenzyl]aminoethylthio]benzoic acid] | 0.3 | 10.2 | 0.7 | 
19 | CCCCCCCN(CCSc1ccccc1C(=O)O)c1nc2ccccc2o1 [Example 77, 2-[2-[N-(Benzoxazol-2-yl)-N-n-heptyl]aminoethylthio]benzoic acid] | 0.2 | 18.9 | 2.0 | 
20 | CCCCCCCCN(CCSc1ccccc1C(=O)O)c1nc2ccccc2o1 [Example 78, 2-[2-[N-(Benzoxazol-2-yl)-N-n-octyl]aminoethylthio]benzoic acid] | 0.2 | 20.8 | 2.1 | 
21 | Cc1cccc(Nc2cc(Cl)nc(SCC(=O)O)n2)c1C [WY14643, reference compound] |  |  |  | 10.0
